Measurements published in patent US9332764B2, “Aqueous composition for inactivating sporulated and/or non-sporulated coccidian parasites” (Ecolab USA Inc., priority 2007, dated 2016).
“Also recorded” adds a separate entry of the source.

Experiments:
Eimeria oocysts = details: cited from earlier work
[1] = system: non-sporulated oocysts of Eimeria papillata; assay: Incubation of fresh non-sporulated oocysts, then check for sporulation after one week at 25° C.; format: cell-based; details: incubation 60 min; for result (sporulation): room temperature, no surfactant
Method: (§1) For the experiments 20 g female Balb/C-mice were used. […] The flotation medium was prepared containing 124.5 g NaCl and 435.8 g saccharide which was diluted with water and filled up to 1 litre. Fresh non-sporulated oocysts were prepared. Subsequently the Balb/C-mice were infected with 20,000 sporulated oocysts. From the fourth day after infection, fresh mouse excrement is collected and isolated by flotation. Residual flotation medium is removed by washing three times with clean water.
(§2) A chlorine dioxide solution is prepared by mixing a solution containing sodium chlorite and an acidic solution. By reaction chlorine dioxide is produced. The solution comprises 120 ppm chorine dioxide. By further dilution, chlorine dioxide solutions of 40, 20, 10, 4, 1, and 0.5 ppm are produced which are immediately used for the experiments.
Oocysts of Eimeria papillata were filtered from fresh mice excrements and incubated for 60 min with freshly produced chlorine dioxide solution at concentrations of 40, 20, 10, 4, 1, 0.5 ppm at room temperature. After 60 min incubation time the oocyst suspensions were washed with water and cultured for sporulation in 1 ml water. The probes were incubated for one week at 25° C. As control a non-treated, non-sporulated oocyst sample was used which was also incubated for one week at 25° C. After seven days it was checked if a sporulation occurred. (see table 1)
In the same way experiments were carried out with the aqueous composition according to the invention comprising chlorine dioxide and as an anionic surfactant Dofax 2A1 (Dow Chemicals) which is a mixture of a disodium oxybis(dodecyl benzenesulfonate) and a dodecyl(sulfophenoxy)disodium salt of benzene sulfonic acid. The composition comprises between 0.5 to 25 ppm chlorine dioxide and 0.2 wt. % of the anionic surfactant. (see table 2)

[2] = system: sporulated oocysts of Eimeria papillata; assay: Infection of mice with treated sporulated oocysts, excretion of oocysts in excrements; format: in vivo, Eimeria papillata in Balb/C-mice; parameters: key to excretion 4 dpi / excretion 5 dpi / excretion 6 dpi / excretion 7 dpi: +++: massive excretion of oocysts; ++: excretion of many oocysts; +: excretion of few oocysts; −: no oocysts detectable; details: for excretion 4 dpi / excretion 5 dpi / excretion 6 dpi / excretion 7 dpi: 60 min; for excretion 4 dpi: 4 days after infection; for excretion 5 dpi: 5 days after infection; for excretion 6 dpi: 6 days after infection; for excretion 7 dpi: 7 days after infection
Method: as §1
Sporulated infectious oocysts were incubated at 25° C. for one week.
as §2
A further series of experiments was performed in order to evaluate the inactivation pattern of sporulated oocysts. […] After that the oocyst suspensions were washed with water for three times and 20,000 oocysts were orally administered to a mouse. Per concentration one mouse was used. In addition two mice were treated, each with 20,000 non-treated, sporulated oocysts for control purposes. From the fourth day after infection samples of the excrements of the mice were taken daily and the presence of oocysts of Eimeria papillata was examined. (see table 3) […]

[3] = system: sporulated and/or non-sporulated Coccidian parasites; assay: Inactivation of Coccidian parasites by chlorine dioxide solutions, general statements; details: chlorine dioxide alone, concentrations below 120 ppm
Source text: Therefore the disadvantage of the method described in JP 2004-210726 is that high concentrations of chlorine dioxide have to be used in order to sufficiently inactivate the Coccidian parasites. The inventors of the present invention have performed experiments to lower the limit of the concentration of chlorine dioxide in a solution which is still effective, inactivating Coccidian parasites.
In addition the inventors have also investigated whether combinations of chlorine dioxide with other surfactants like for example alkyl sulfonates, amine oxides, ethoxylated polyalcohols, quaternary ammonium compounds, lauryl hydroxy sulfane, and alkyl ether sulfates have an effect in combination with lower concentrations of chlorine dioxide.

[4] = system: sporulated and/or non-sporulated Coccidian parasites; details: preferably around 800 ppm; cited from earlier work
[5] = oocysts treated with ClO2 4 ppm
[6] = oocysts treated with ClO2 10 ppm
[7] = oocysts treated with ClO2 20 ppm
[8] = oocysts treated with ClO2 40 ppm
[9] = oocysts treated with ClO2 120 ppm
[10] = oocysts treated with ClO2 240 ppm

## CC(=O)OO [peracetic acid]
Eimeria oocysts
  effectiveness for eradication of coccoid oocysts: ineffective

## O=S(=O)([O-])[O-].[Cu+2] [copper sulfate]
Eimeria oocysts
  effectiveness for eradication of coccoid oocysts: ineffective

## benzalkonium chloride
Eimeria oocysts
  effectiveness for eradication of coccoid oocysts: ineffective

## O=S(=O)(O)O [sulfuric acid]
Eimeria oocysts
  effectiveness for eradication of coccoid oocysts: ineffective

## cresylic acid
Eimeria oocysts
  effectiveness for eradication of coccoid oocysts: ineffective

## [K+].[K+].[O]=[Cr](=[O])([O-])[O][Cr](=[O])(=[O])[O-] [potassium dichromate]
Eimeria oocysts
  effectiveness for eradication of coccoid oocysts: ineffective

## C=O [formalin]
Eimeria oocysts
  effectiveness for eradication of coccoid oocysts: ineffective

## [K+].[OH-] [potassium hydroxide]
Eimeria oocysts
  effectiveness for eradication of coccoid oocysts: ineffective

## O=CCCCC=O [glutaraldehyde]
Eimeria oocysts
  effectiveness for eradication of coccoid oocysts: ineffective

## OCl [sodium hypochlorite]
Eimeria oocysts
  effectiveness for eradication of coccoid oocysts: ineffective

## [O][Cl+][O-] [chlorine dioxide solution, chlorine dioxide]
[1]; ClO2 0.5 ppm
  result (sporulation): complete
[1]; ClO2 1 ppm
  result (sporulation): complete
[1]; ClO2 4 ppm
  result (sporulation): complete
[1]; ClO2 10 ppm
  result (sporulation): complete
[1]; ClO2 20 ppm
  result (sporulation): complete
[1]; ClO2 40 ppm
  result (sporulation): partial
[1]; chlorine dioxide only, concentrations below 40 ppm
  sporulation: complete or partial sporulation
[2]; chlorine dioxide between 4 and 40 ppm, incubation 60 min
  excretion of oocysts of Eimeria papillata in Balb/C-mice: cannot be avoided
[2]; concentrations of 120 ppm and 240 ppm
  detectable oocysts: no detectable oocysts
[2]; [5]
  excretion 4 dpi: ++
  excretion 5 dpi: ++
  excretion 6 dpi: ++
  excretion 7 dpi: +
[2]; [6]
  excretion 4 dpi: ++
  excretion 5 dpi: ++
  excretion 6 dpi: ++
  excretion 7 dpi: +
[2]; [7]
  excretion 4 dpi: ++
  excretion 5 dpi: ++
  excretion 6 dpi: +
  excretion 7 dpi: +
[2]; [8]
  excretion 4 dpi: +
  excretion 5 dpi: +
  excretion 6 dpi: +
  excretion 7 dpi: +
[2]; [9]
  excretion 4 dpi: −
  excretion 5 dpi: −
  excretion 6 dpi: −
  excretion 7 dpi: −
[2]; [10]
  excretion 4 dpi: −
  excretion 5 dpi: −
  excretion 6 dpi: −
  excretion 7 dpi: −
[3]
  inactivation / eradication of coccoid organisms: ineffective; also recorded: will not inactivate
[4]
  chlorine dioxide concentration known to completely inactivate sporulated and/or non-sporulated Coccidian parasites: above 200 ppm

## [I-].[K+] [potassium iodide]
Eimeria oocysts
  effectiveness for eradication of coccoid oocysts: ineffective
